Patent publication US10588879B2, “Treatment of age-related macular degeneration” (Aurin Biotech Inc., priority 2011, dated 2020)
Where two headings read alike, the source gives them in different places.

Legend:
[1] = biological target: T1, membrane attack complex (addition of C9 to C5b678) (Homo sapiens, UniProt P02748); test: Western blot variation of CH50 assay: stage of complement blockade; assay type: biochemical; conditions: human serum diluted 16 fold, pre-treated 30 min; blots with antibodies to C6, C7, C8, C9
T1 construct: from tissue; host or cells: normal human serum (with antibody-sensitized sheep red blood cells)
Experimental: Normal human serum was pre-treated with aliquots of aqueous solutions of ATA, AQA, AHA and ATAC prior to adding sheep red blood cells sensitized to human complement. The reaction mixtures were incubated at 37° C. for 1 h. Aliquots were loaded on 10% polyacrylamide gels and subjected to SDS-PAGE. Proteins were transferred to membranes and developed with appropriate primary antibodies to complement proteins (Table 1): FIG. 4A: Western blots of membranes developed with antibodies to C1q, C3, C4 and C5. Lane 1, untreated serum; lane 2, serum with red blood cells added; lane 3 serum with red blood cells protected with ATAC. Notice that in untreated serum, bands for C1q, C3, C4, and C5 were readily detected. In lanes 2 and 3, the activated products C3d, C4d, and C5a were detected indicating opsonization had taken place. […] It can be seen that C5b-9 is […] detected upon probing with C6, C7, C8 and C9, thus establishing that the ATAC block was at the C9 stage. […]
To determine at which stage of assembly of the membrane attack complex was being blocked, additional analyses were carried. […] The C6 antibody detected C5b6, C5b67, and C5b678. The C7 antibody detected C5b67 and C5b678, while the C8 antibody detected C5b678. […]

[2] = tested on: classical complement pathway; test: CH50 assay, human serum, sensitized sheep red blood cell hemolysis; assay type: cell-based; conditions: sensitized sheep red blood cells, 1 hour at 37° C., read-out: IC50, inhibition of human complement-mediated red blood cell hemolysis
Experimental: To evaluate the strength of blockade of the classical complement pathway by the low molecular weight products of the aurin tricarboxylic acid complex, (i.e. ATA plus AQA plus AHA), the standard CH50 assay was employed. Sheep red blood cells were sensitized by incubation overnight with rabbit anti sheep red blood cell antibody. Then dilutions of serum, with and without various amounts of the low molecular weight aurin tricarboxylic acid fraction (ATAC), were incubated with the sensitized red blood cells for 1 hour at 37° C. The incubates were centrifuged at 5,000 rpm for 10 min. The hemoglobin released into the serum from red blood cells that had been destroyed by complement attack, was determined by reading the optical density (OD) at 405 nm. As a positive control, red blood cells were 100% lysed with water, and as a negative control, no serum was added to the incubate.

T1 sequence (P02748 22-559, one chain of several): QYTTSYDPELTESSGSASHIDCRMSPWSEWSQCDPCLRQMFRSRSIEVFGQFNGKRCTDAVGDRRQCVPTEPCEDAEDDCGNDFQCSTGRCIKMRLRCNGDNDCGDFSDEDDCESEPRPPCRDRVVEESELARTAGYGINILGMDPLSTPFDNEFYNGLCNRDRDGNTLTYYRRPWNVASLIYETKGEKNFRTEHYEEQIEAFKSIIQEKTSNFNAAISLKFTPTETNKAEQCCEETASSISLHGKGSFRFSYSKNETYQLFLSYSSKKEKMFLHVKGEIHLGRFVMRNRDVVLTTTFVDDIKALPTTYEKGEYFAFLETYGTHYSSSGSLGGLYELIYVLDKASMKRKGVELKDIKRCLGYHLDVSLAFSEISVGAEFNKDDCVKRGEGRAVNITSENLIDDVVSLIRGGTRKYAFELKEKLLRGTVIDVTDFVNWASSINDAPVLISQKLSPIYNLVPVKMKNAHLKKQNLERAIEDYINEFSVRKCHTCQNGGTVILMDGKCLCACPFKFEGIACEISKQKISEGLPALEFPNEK

Row | Molecule | stage at which membrane attack complex formation is arrested [1] | IC50 [2] | IC50 ([2]; Erythrocyte)
1 | 5,5′-((3-carboxy-5-((3-carboxy-4-oxocyclohexa-2,5-dien-1-ylidene)methyl)-4-hydroxybenzyl)-4-hydroxyphenyl)methylene)bis(2-hydroxybenzoic acid) [AHA] | becomes arrested at the C8 stage | 559 nM | 
2 | O=C(O)C1=CC(=Cc2cc(C(c3ccc(O)c(C(=O)O)c3)c3ccc(O)c(C(=O)O)c3)cc(C(=O)O)c2O)C=CC1=O [AQA] | becomes arrested at the C8 stage | 576 nM | 
3 | O=C(O)C1=CC(=C(c2ccc(O)c(C(=O)O)c2)c2ccc(O)c(C(=O)O)c2)C=CC1=O [ATA, 5,5′-((3-carboxy-4-oxocyclohexa-2,5-dienn-1-ylidene)methylene)bis(2-hydroxybenzoic acid)] |  |  | 544 nM
